Data published in patent US20040253656A1, “Method for measuring inositol triphosphate” (priority 2003, published 2004).
pKd: −log10 of the molar value.

Tests used:
PLCδ1/PH domain = target: T1, PLCδ1/PH domain (Homo sapiens, UniProt P51178); conditions: Lemmon & Ferguson (2001), read-out: affinity for IP3; cited from earlier work
T1 sequence (P51178 21-130 limits assumed): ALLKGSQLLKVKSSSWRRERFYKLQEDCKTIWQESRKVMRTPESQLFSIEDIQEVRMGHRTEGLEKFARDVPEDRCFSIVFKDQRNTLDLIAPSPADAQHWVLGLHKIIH

CHOM1 cells = test: Cellular assay: IP3 levels in CHOM1 cells after carbachol, measured by scintillation proximity assay; assay type: cell-based; conditions: 20 mM LiCl, Carbachol 0.01 mM to 100 mM, 1 minute, FIG. 3
Description: Standard curves were generated, by displacing labelled IP3, using a range of known concentrations of unlabelled IP3. Reactions were conducted in 96 well Corning NBS microplates in a total volume of […]. The assays were carried out using 10 mMTris/[…] pH 7.0 containing 400 ng of the biotinylated GST-tagged PLC, protein, 10 nCi [^3H] IP3 (spec activity 23.0 Ci/mmol, Amersham), and 1 mg of streptavidin coated PVT beads. Plates were incubated on ice for 2 hours and the plates then read using a Microbeta microplate scintillation counter. Standard curves were also run in the presence of dodecyl trimethyl ammonium bromide (DTAB; lysis reagent 1) and alpha-cyclodextrin (lysis reagent 2) at final concentrations of 0.3% lysis solution 1 and 2% lysis reagent 2 (FIG. 2).
Cells (CHOM1; 2×10^5) were seeded onto a 24 well tissue culture plate and grown overnight at 37° C., 95/5% (air/CO2). Following overnight incubation, media were aspirated and the cells were washed 1× with PBS (phosphate buffered saline). Fresh media were added containing 20 mM LiCl (final concentration of lithium chloride) and the cells were incubated for 30 minutes at 37° C. in a humidified atmosphere (95/5%, air/CO2). […] The plate was incubated on ice for approximately 16 hours and the plate counted using a Microbeta microplate scintillation counter at 1 minute/well.

Compound	pKd (PLCδ1/PH domain)	effect on cellular levels of IP3 (CHOM1 cells)
O=P(O)(O)O[C@@H]1[C@H](O)[C@H](O)[C@@H](OP(=O)(O)O)[C@H](OP(=O)(O)O)[C@H]1O [IP3, Inositol 1,4,5-trisphosphate]	6.70	
C[N+](C)(C)CCOC(N)=O [carbachol, Carbachol]		stimulatory effect
